Measurements published in patent publication US20250223303A1, “TRICYCLIC BORONIC ACID DERIVATIVE, AND PREPARATION METHOD THEREFOR AND APPLICATION THEREOF” (priority 2021, published 2025).

How the values were obtained:
[1] = system: Escherichia coli ARLG 2829; assay: MIC test of compounds in combination with antibiotics, Escherichia coli ARLG 2829; conditions: for MIC of biapenem in combination with compound, Escherichia coli ARLG-2829 NDM-5, OXA-1: Biapenem + compound (8 μg/mL); for MIC of meropenem in combination with compound, Escherichia coli ARLG-2829 NDM-5, OXA-1: Meropenem + compound (8 μg/mL)
Protocol: (§1) Strain preparation: the strains to be tested were streaked from glycerol tube at −80° C. onto Mueller Hinton II Agar plates. The plates were then placed in a 37° C. incubator and cultured for 18-24 hours.
(§2) Media preparation: CAMHB (Mueller Hinton II Broth): 22 g of powder was dissolved in 1 L of purified water and sterilized at 121° C. for 10 min for use. Saline: 8.5 g NaCl was dissolved in 1 L of pure water and sterilized at 121° C. for 30 min for use.
(§3) Preparation of compound and antibiotic stock solutions: the compound and antibiotic were dissolved in DMSO or water to 12.8 mg/mL.
(§4) 2-Fold gradient dilution of antibiotics: 300 μL of CAMHVIB medium was added to columns 2-12 of a 96-deep well plate. In column 1, 24 μL of antibiotic stock solution and 576 µL of CAMHB medium were added and mixed well, with a concentration of 512 μg/mL. 300 µL of antibiotic solution was transferred from the column 1 to the second column and mixed well. The process was repeated until column 11, and the column 12 was a blank control.
(§5) Dilution of combined compounds: the compound was diluted 400-fold to 32 μg/ml with CAMHB medium.
(§6) Working solution aliquoting: 25 μL of antibiotics was aliquoted into the 96-U bottom plate with a pipette, and 25 μL of combined compound was added to each well. If antibiotics were used alone, 25 μL of CAMHB medium was added.
(§7) Inoculum solution preparation: 5-6 single colonies were selected from the plate and suspended in normal saline. The bacterial suspension was adjusted to 0.2 (i.e., 0.5 McFarland turbidity, with a bacterial concentration was about 1 to 2×10^8 CFU/mL) with a turbidity meter. The bacterial suspension was diluted 100-fold with CAMHB medium for later use.
(§8) Inoculation: 50 μL of inoculum solution was transferred to the above 50 μL compound plate with a pipette.
(§9) Culture: The 96-U bottom plate was placed in an incubator at 37° C. for 18 to 20 h.
(§10) After the incubation, bacterial growth was visually observed, and the test plate was photographed and recorded.

[2] = system: Acinetobacter baumannii WX-AB005; assay: MIC test of compounds in combination with antibiotics, Acinetobacter baumannii WX-AB005; conditions: for MIC of biapenem in combination with compound, Acinetobacter baumannii WX-AB005: Biapenem + compound (8 μg/mL); for MIC of meropenem in combination with compound, Acinetobacter baumannii WX-AB005: Meropenem + compound (8 μg/mL)
Protocol: as §4, §5, §6, §7, §8, §9

[3] = system: Acinetobacter baumannii ARLG-1853 OXA-23; assay: MIC test of compounds in combination with antibiotics, Acinetobacter baumannii ARLG-1853; conditions: for MIC of biapenem in combination with compound, Acinetobacter baumannii ARLG-1853 OXA-23: Biapenem + compound (8 μg/mL); for MIC of meropenem in combination with compound, Acinetobacter baumannii ARLG-1853 OXA-23: Meropenem + compound (8 μg/mL)
[4] = system: Acinetobacter baumannii ARLG-1809 OXA-23; assay: MIC test of compounds in combination with antibiotics, Acinetobacter baumannii ARLG-1809; conditions: for MIC of biapenem in combination with compound, Acinetobacter baumannii ARLG-1809 OXA-23: Biapenem + compound (8 μg/mL); for MIC of meropenem in combination with compound, Acinetobacter baumannii ARLG-1809 OXA-23: Meropenem + compound (8 μg/mL)
Protocol: as §4, §5, §6, §7, §8, §9

[5] = system: Klebsiella pneumoniae ATCC BAA-2470; assay: MIC test of compounds in combination with antibiotics, Klebsiella pneumoniae ATCC BAA-2470; conditions: for MIC of biapenem in combination with compound, Klebsiella pneumoniae ATCC BAA-2470 NDM-1: Biapenem + compound (8 μg/mL); for MIC of meropenem in combination with compound, Klebsiella pneumoniae ATCC BAA-2470 NDM-1: Meropenem + compound (8 μg/mL)
Protocol: as §1, §2, §3, §4, §5, §6, §7, §8, §9, §10

[6] = system: Acinetobacter baumannii ARLG-1791 OXA-23; assay: MIC test of compounds in combination with antibiotics, Acinetobacter baumannii ARLG-1791; conditions: for MIC of biapenem in combination with compound, Acinetobacter baumannii ARLG-1791 OXA-23: Biapenem + compound (8 μg/mL); for MIC of meropenem in combination with compound, Acinetobacter baumannii ARLG-1791 OXA-23: Meropenem + compound (8 μg/mL)
Protocol: as §4, §5, §6, §7, §8, §9

[7] = system: Acinetobacter baumannii ARLG-1852 OXA-23; assay: MIC test of compounds in combination with antibiotics, Acinetobacter baumannii ARLG-1852; conditions: for MIC of biapenem in combination with compound, Acinetobacter baumannii ARLG-1852 OXA-23: Biapenem + compound (8 μg/mL); for MIC of meropenem in combination with compound, Acinetobacter baumannii ARLG-1852 OXA-23: Meropenem + compound (8 μg/mL)
Protocol: as §4, §5, §6, §7, §8, §9

[8] = system: Acinetobacter baumannii WX-AB013; assay: MIC test of compounds in combination with antibiotics, Acinetobacter baumannii WX-AB013; conditions: for MIC of biapenem in combination with compound, Acinetobacter baumannii WX-AB013: Biapenem + compound (8 μg/mL); for MIC of meropenem in combination with compound, Acinetobacter baumannii WX-AB013: Meropenem + compound (8 μg/mL)
[9] = system: Klebsiella pneumoniae ARLG 1196; assay: MIC test of compounds in combination with antibiotics, Klebsiella pneumoniae ARLG 1196; conditions: for MIC of biapenem in combination with compound, Klebsiella pneumoniae ARLG-1196 CTM-1 group, SHV, NDM, TEM: Biapenem + compound (8 μg/mL); for MIC of meropenem in combination with compound, Klebsiella pneumoniae ARLG-1196 CTM-1 group, SHV, NDM, TEM: Meropenem + compound (8 μg/mL)
Protocol: as §1, §2, §3, §4, §5, §6, §7, §8, §9, §10

[10] = system: Klebsiella pneumoniae ATCC BAA-1705; assay: MIC test of compounds in combination with antibiotics, Klebsiella pneumoniae ATCC BAA-1705; conditions: for MIC of biapenem in combination with compound, Klebsiella pneumoniae ATCC BAA-1705 KPC-2: Biapenem + compound (8 μg/mL); for MIC of meropenem in combination with compound, Klebsiella pneumoniae ATCC BAA-1705 KPC-2: Meropenem + compound (8 μg/mL)
Protocol: as §1, §2, §3, §4, §5, §6, §7, §8, §9, §10

[11] = system: Acinetobacter baumannii ARLG-1853 OXA-23; assay: MIC test of compounds in combination with antibiotics, Acinetobacter baumannii ARLG-1853; conditions: Acinetobacter baumannii, ARLG1853OXA23
Protocol: as §4, §5, §6, §7, §8, §9

[12] = system: Acinetobacter baumannii ARLG-1791 OXA-23; assay: MIC test of compounds in combination with antibiotics, Acinetobacter baumannii ARLG-1791; conditions: Acinetobacter baumannii, ARLG1791OXA23
Protocol: as §4, §5, §6, §7, §8, §9

[13] = system: Acinetobacter baumannii WX-AB013; assay: MIC test of compounds in combination with antibiotics, Acinetobacter baumannii WX-AB013; conditions: Acinetobacter baumannii, WXAB013
Protocol: as §4, §5, §6, §7, §8, §9

[14] = system: Acinetobacter baumannii ARLG-1809 OXA-23; assay: MIC test of compounds in combination with antibiotics, Acinetobacter baumannii ARLG-1809; conditions: Acinetobacter baumannii, ARLG1809OXA23
Protocol: as §4, §5, §6, §7, §8, §9

[15] = system: Acinetobacter baumannii WX-AB005; assay: MIC test of compounds in combination with antibiotics, Acinetobacter baumannii WX-AB005; conditions: Acinetobacter baumannii, WXAB005
Protocol: as §4, §5, §6, §7, §8, §9

[16] = system: Acinetobacter baumannii ARLG-1852 OXA-23; assay: MIC test of compounds in combination with antibiotics, Acinetobacter baumannii ARLG-1852; conditions: Acinetobacter baumannii, ARLG1852OXA23
Protocol: as §4, §5, §6, §7, §8, §9

Structure (SMILES): C[C@@H](Sc1ccc2c(c1C(=O)O)OB(O)[C@H]1C[C@@H]21)[C@@H]1CCCO1 [Compound 18-d]
- MIC of biapenem in combination with compound, Escherichia coli ARLG-2829 NDM-5, OXA-1 [1]: 0.5 µg/mL
- MIC of meropenem in combination with compound, Escherichia coli ARLG-2829 NDM-5, OXA-1 [1]: 8 µg/mL
- MIC of biapenem in combination with compound, Acinetobacter baumannii WX-AB005 [2]: 4 µg/mL
- MIC of meropenem in combination with compound, Acinetobacter baumannii WX-AB005 [2]: 8 µg/mL
- MIC of biapenem in combination with compound, Acinetobacter baumannii ARLG-1853 OXA-23 [3]: 1 µg/mL
- MIC of meropenem in combination with compound, Acinetobacter baumannii ARLG-1853 OXA-23 [3]: 4 µg/mL
- MIC of biapenem in combination with compound, Acinetobacter baumannii ARLG-1809 OXA-23 [4]: 4 µg/mL
- MIC of meropenem in combination with compound, Acinetobacter baumannii ARLG-1809 OXA-23 [4]: 8 µg/mL
- MIC of biapenem in combination with compound, Klebsiella pneumoniae ATCC BAA-2470 NDM-1 [5]: 0.5 µg/mL
- MIC of meropenem in combination with compound, Klebsiella pneumoniae ATCC BAA-2470 NDM-1 [5]: 16 µg/mL
- MIC of biapenem in combination with compound, Acinetobacter baumannii ARLG-1791 OXA-23 [6]: 1 µg/mL
- MIC of meropenem in combination with compound, Acinetobacter baumannii ARLG-1791 OXA-23 [6]: 8 µg/mL
- MIC of biapenem in combination with compound, Acinetobacter baumannii ARLG-1852 OXA-23 [7]: 1 µg/mL
- MIC of meropenem in combination with compound, Acinetobacter baumannii ARLG-1852 OXA-23 [7]: 8 µg/mL
- MIC of biapenem in combination with compound, Acinetobacter baumannii WX-AB013 [8]: 1 µg/mL
- MIC of meropenem in combination with compound, Acinetobacter baumannii WX-AB013 [8]: 4 µg/mL
- MIC of biapenem in combination with compound, Klebsiella pneumoniae ARLG-1196 CTM-1 group, SHV, NDM, TEM [9]: ≤0.125 µg/mL
- MIC of meropenem in combination with compound, Klebsiella pneumoniae ARLG-1196 CTM-1 group, SHV, NDM, TEM [9]: 4 µg/mL
- MIC of biapenem in combination with compound, Klebsiella pneumoniae ATCC BAA-1705 KPC-2 [10]: 0.5 µg/mL
- MIC of meropenem in combination with compound, Klebsiella pneumoniae ATCC BAA-1705 KPC-2 [10]: 0.5 µg/mL

Structure (SMILES): C[C@H](Sc1ccc2c(c1C(=O)O)OB(O)[C@@H]1C[C@H]21)C1CN(C)C1 [Compound 20-a]
- MIC of biapenem in combination with compound, Escherichia coli ARLG-2829 NDM-5, OXA-1 [1]: 0.25 µg/mL
- MIC of meropenem in combination with compound, Escherichia coli ARLG-2829 NDM-5, OXA-1 [1]: 16 µg/mL
- MIC of biapenem in combination with compound, Acinetobacter baumannii WX-AB005 [2]: 2 µg/mL
- MIC of meropenem in combination with compound, Acinetobacter baumannii WX-AB005 [2]: 4 µg/mL
- MIC of biapenem in combination with compound, Acinetobacter baumannii ARLG-1853 OXA-23 [3]: 0.25 µg/mL
- MIC of meropenem in combination with compound, Acinetobacter baumannii ARLG-1853 OXA-23 [3]: 2 µg/mL
- MIC of biapenem in combination with compound, Acinetobacter baumannii ARLG-1809 OXA-23 [4]: 0.5 µg/mL
- MIC of meropenem in combination with compound, Acinetobacter baumannii ARLG-1809 OXA-23 [4]: 2 µg/mL
- MIC of biapenem in combination with compound, Klebsiella pneumoniae ATCC BAA-2470 NDM-1 [5]: ≤0.125 µg/mL
- MIC of meropenem in combination with compound, Klebsiella pneumoniae ATCC BAA-2470 NDM-1 [5]: 4 µg/mL
- MIC of biapenem in combination with compound, Acinetobacter baumannii ARLG-1791 OXA-23 [6]: 0.25 µg/mL
- MIC of meropenem in combination with compound, Acinetobacter baumannii ARLG-1791 OXA-23 [6]: 2 µg/mL
- MIC of biapenem in combination with compound, Acinetobacter baumannii ARLG-1852 OXA-23 [7]: 0.25 µg/mL
- MIC of meropenem in combination with compound, Acinetobacter baumannii ARLG-1852 OXA-23 [7]: 2 µg/mL
- MIC of biapenem in combination with compound, Acinetobacter baumannii WX-AB013 [8]: 0.5 µg/mL
- MIC of meropenem in combination with compound, Acinetobacter baumannii WX-AB013 [8]: 2 µg/mL
- MIC of biapenem in combination with compound, Klebsiella pneumoniae ARLG-1196 CTM-1 group, SHV, NDM, TEM [9]: ≤0.125 µg/mL
- MIC of meropenem in combination with compound, Klebsiella pneumoniae ARLG-1196 CTM-1 group, SHV, NDM, TEM [9]: 2 µg/mL
- MIC of biapenem in combination with compound, Klebsiella pneumoniae ATCC BAA-1705 KPC-2 [10]: 0.5 µg/mL
- MIC of meropenem in combination with compound, Klebsiella pneumoniae ATCC BAA-1705 KPC-2 [10]: ≤0.125 µg/mL

Structure (SMILES): C[C@@H](O)[C@H]1C(=O)N2C(C(=O)O)=C(S[C@@H]3CN[C@H](C(=O)N(C)C)C3)[C@H](C)[C@H]12 [Meropenem]
- MIC [11]: 128 µg/mL
- MIC ([1]; Escherichia coli, ARLG2829): > 128 µg/mL
- MIC ([5]; Klebsiella pneumoniae, ATCCBAA2470): 128 µg/mL
- MIC [12]: > 128 µg/mL
- MIC [13]: 64 µg/mL
- MIC [14]: 32 µg/mL
- MIC [15]: > 128 µg/mL
- MIC ([9]; Klebsiella pneumoniae, ARLG1196): 128 µg/mL
- MIC ([10]; Klebsiella pneumoniae, ATCCBAA1705): 128 µg/mL
- MIC [16]: 128 µg/mL
